# Results from patent US9771370B2, “Compounds for the inhibition of indoleamine-2,3-dioxygenase” (Merck Patent GmbH, priority 2014, dated 2017).
# Target: Recombinant human IDO (Homo sapiens, UniProt P14902)
# Test: Bridge-IT tryptophan fluorescence assay of human IDO-1 inhibition
# Format: biochemical
# Settings: recombinant human IDO 7.5 nM, L-tryptophan
# Summary of the method: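 One variant ran L-Trp at 100 μM for 90 min at 37 °C. The other pre-incubated compound for 30 min at 25 °C, then ran 50 μM L-Trp for 60 min at 25 °C.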
# Chain of Recombinant human IDO (P14902 whole entry): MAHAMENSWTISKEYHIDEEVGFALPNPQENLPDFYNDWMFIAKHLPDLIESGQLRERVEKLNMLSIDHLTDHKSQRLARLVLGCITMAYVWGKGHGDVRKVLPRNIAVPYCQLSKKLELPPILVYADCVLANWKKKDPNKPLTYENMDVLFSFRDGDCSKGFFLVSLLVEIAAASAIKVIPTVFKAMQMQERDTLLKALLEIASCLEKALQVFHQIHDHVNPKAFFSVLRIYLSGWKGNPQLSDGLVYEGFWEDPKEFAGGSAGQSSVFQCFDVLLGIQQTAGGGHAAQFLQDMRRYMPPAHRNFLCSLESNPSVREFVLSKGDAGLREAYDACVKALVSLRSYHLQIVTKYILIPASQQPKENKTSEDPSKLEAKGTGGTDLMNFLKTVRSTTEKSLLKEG
row,SMILES,IC50 [nM]
1,"COc1ccc2c(n1)C(CC(N)C1CCCCC1)n1cncc1-2 (mixture of isomers) [Compound 118a, 1-cyclohexyl-2-[10-methoxy-4,6,9-triazatricyclo[6.4.0.0^[2,6]]dodeca-1(8),2,4,9,11-pentaen-7-yl]ethan-1-amine]",> 1000
2,"OC1(C2CCC(F)(CCC3c4c(F)cccc4-c4cncn43)CC2)CC1 (mixture of isomers) [Compound 85a, 1-[4-fluoro-4-(2-[6-fluoro-5H-imidazo[4,3-a]isoindol-5-yl]ethyl)cyclohexyl]cyclopropan-1-ol]",< 100
3,"CC(C)(C)C(=O)N1CCC(C(O)CC2c3ncccc3-c3cncn32)CC1 (single isomer, unassigned) [Compound 88a, 1-[4-[1-hydroxy-2-[4,6,9-triazatricyclo[6.4.0.0^[2,6]]dodeca-1(8),2,4,9,11-pentaen-7-yl]ethyl]piperidin-1-yl]-2,2-dimethylpropan-1-one]",> 1000
4,"CC(C)(O)C1CCC(F)(CCC2c3ccccc3-c3cncn32)CC1 (single isomer, unassigned) [Compound 61b, 2-[4-fluoro-4-[2-[5H-imidazo[4,3-a]isoindol-5-yl]ethyl]cyclohexyl]propan-2-ol]",> 1000
5,"NC(=O)CC1CCC(F)(CCC2c3c(Cl)cccc3-c3cncn32)CC1 (single isomer, unassigned) [Compound 113d, 2-[4-[2-[6-chloro-5H-imidazo[4,3-a]isoindol-5-yl]ethyl]-4-fluorocyclohexyl]acetamide]",< 100
6,"OC(CC1c2ncccc2-c2cncn21)C1CCOCC1 (single isomer, unassigned) [Compound 92d, 1-(oxan-4-yl)-2-[4,6,9-triazatricyclo[6.4.0.0^[2,6]]dodeca-1(8),2,4,9,11-pentaen-7-yl]ethan-1-ol]",> 1000
7,"OC(CC1c2ncccc2-c2cncn21)C1CCC(F)(F)CC1 (single isomer, unassigned) [Compound 22a, 1-(4,4-difluorocyclohexyl)-2-[4,6,9-triazatricyclo[6.4.0.0^[2,6]]dodeca-1(8),2,4,9,11-pentaen-7-yl]ethan-1-ol]",100 to 1000
8,"OC1CCC(F)(CCC2c3c(F)ccc(F)c3-c3cncn32)CC1 (single isomer, unassigned) [Compound 38b, 4-(2-(6,9-difluoro-5H-imidazo[5,1-a]isoindol-5-yl)ethyl)-4-fluorocyclohexanol]",100 to 1000
9,"COc1ccc2c(n1)C(CCC1(F)CCC3(CC1)CC3)n1cncc1-2 (single isomer, unassigned) [Compound 54a, 7-(2-{6-fluorospiro[2.5]octan-6-yl}ethyl)-10-methoxy-4,6,9-triazatricyclo[6.4.0.0^[2,6]]dodeca-1(8),2,4,9,11-pentaene]",< 100
10,"OC(CC1c2nc(C(F)(F)F)ccc2-c2cncn21)C1CCC(F)(F)CC1 (single isomer, unassigned) [Compound 77b, 1-(4,4-difluorocyclohexyl)-2-[10-(trifluoromethyl)-4,6,9-triazatricyclo[6.4.0.0^[2,6]]dodeca-1(8),2,4,9,11-pentaen-7-yl]ethan-1-ol]",> 1000
11,"OC(CC1c2ncncc2-c2cncn21)C1CCCCC1 (single isomer, unassigned) [Compound 67b, 1-cyclohexyl-2-[4,6,9,11-tetraazatricyclo[6.4.0.0^[2,6]]dodeca-1(8),2,4,9,11-pentaen-7-yl]ethan-1-ol]",> 1000
12,"Fc1cccc2c1C(CC(F)C1CCCCC1)n1cncc1-2 (single isomer, unassigned) [Compound 98a, 5-[2-cyclohexyl-2-fluoroethyl]-6-fluoro-5H-imidazo[4,3-a]isoindole]",100 to 1000
13,"FC1(CCC2c3ccccc3-c3cncn32)CCOCC1 (single isomer, unassigned) [Compound 94a, 5-[2-(4-fluorooxan-4-yl)ethyl]-5H-imidazo[4,3-a]isoindole]",> 1000
14,"OC1CCC(F)(CCC2c3cccc(F)c3-c3cncn32)CC1 (single isomer, unassigned) [Compound 35a, 4-fluoro-4-(2-(9-fluoro-5H-imidazo[5,1-a]isoindol-5-yl)ethyl)cyclohexanol]",> 1000
15,"O=C(O)C1CCC(F)(CCC2c3c(F)cccc3-c3cncn32)CC1 (single isomer, unassigned) [Compound 80b, 4-fluoro-4-(2-[6-fluoro-5H-imidazo[4,3-a]isoindol-5-yl]ethyl)cyclohexane-1-carboxylic acid]",100 to 1000
16,"CC(C)(C)C(=O)N1CCC(C(O)CC2c3ncccc3-c3cncn32)CC1 (single isomer, unassigned) [Compound 88d, 1-[4-[1-hydroxy-2-[4,6,9-triazatricyclo[6.4.0.0^[2,6]]dodeca-1(8),2,4,9,11-pentaen-7-yl]ethyl]piperidin-1-yl]-2,2-dimethylpropan-1-one]",> 1000
17,"OCC1CCC(F)(CCC2c3ccccc3-c3cncn32)CC1 (single isomer, unassigned) [Compound 59b, [4-fluoro-4-[2-[5H-imidazo[4,3-a]isoindol-5-yl]ethyl]cyclohexyl]methanol]",< 100
18,"NC(=O)CC1CCC(F)(CCC2c3c(F)cccc3-c3cncn32)CC1 (single isomer, unassigned) [Compound 116c, 2-[4-Fluoro-4-[2-[6-fluoro-5H-imidazo[4,3-a]isoindol-5-yl]ethyl]cyclohexyl]acetamide]",> 1000

row,SMILES,IC50 [nM]
1,"OC(CC1CCCCC1)CC1c2ncccc2-c2cncn21 (single isomer, unassigned) [Compound 62c, 1-cyclohexyl-3-[4,6,9-triazatricyclo[6.4.0.0^[2,6]]dodeca-1(8),2,4,9,11-pentaen-7-yl]propan-2-ol]",> 1000
2,"O[C@H]1CC[C@](F)(CC[C@H]2c3ccccc3-c3cncn32)CC1 [Compound 14b, (1S,4s)-4-(2-((S)-5H-imidazo[5,1-a]isoindol-5-yl)ethyl)-4-fluorocyclohexan-1-ol]",< 100
3,"COc1ccc2c(n1)C(CCC1(F)CCCCC1)n1cncc1-2 (single isomer, unassigned) [Compound 32a, 7-[2-(1-fluorocyclohexyl)ethyl]-10-methoxy-4,6,9-triazatricyclo[6.4.0.0^[2,6]]dodeca-1(8),2,4,9,11-pentaene]",> 1000
4,"O[C@H]1CC[C@](F)(CC[C@@H]2c3ccccc3-c3cncn32)CC1 [Compound 14a, (1R,4s)-4-(2-((R)-5H-imidazo[5,1-a]isoindol-5-yl)ethyl)-4-fluorocyclohexan-1-ol]",> 1000
5,"NC(=O)C1CCC(F)(CCC2c3ccccc3-c3cncn32)CC1 (single isomer, unassigned) [Compound 79d, 4-fluoro-4-[2-[5H-imidazo[4,3-a]isoindol-5-yl]ethyl]cyclohexane-1-carboxamide]",< 100
6,"OC1CCC(F)(CCC2c3c(Cl)cccc3-c3cncn32)CC1 (single isomer, unassigned) [Compound 71d, 4-[2-[6-chloro-5H-imidazo[4,3-a]isoindol-5-yl]ethyl]-4-fluorocyclohexan-1-ol]",< 100
7,"NC(=O)C1CCC(F)(CCC2c3c(Cl)cccc3-c3cncn32)CC1 (single isomer, unassigned) [Compound 99b, 4-[2-[6-chloro-5H-imidazo[4,3-a]isoindol-5-yl]ethyl]-4-fluorocyclohexane-1-carboxamide]",100 to 1000
8,"OC(CC1c2ncccc2-c2cncn21)C1(F)CCC(F)(F)CC1 (single isomer, unassigned) [Compound 87c, 2-[4,6,9-triazatricyclo[6.4.0.0^[2,6]]dodeca-1(8),2,4,9,11-pentaen-7-yl]-1-(1,4,4-trifluorocyclohexyl)ethan-1-ol]",> 1000
9,"OC(CC1c2cc(F)ncc2-c2cncn21)C1CCCCC1 (single isomer, unassigned) [Compound 24b, 1-cyclohexyl-2-[10-fluoro-4,6,11-triazatricyclo[6.4.0.0^[2,6]]dodeca-1(8),2,4,9,11-pentaen-7-yl]ethan-1-ol]",> 1000
10,"NC(=O)CC1CCC(F)(CCC2c3c(F)cccc3-c3cncn32)CC1 (single isomer, unassigned) [Compound 116b, 2-[4-Fluoro-4-[2-[6-fluoro-5H-imidazo[4,3-a]isoindol-5-yl]ethyl]cyclohexyl]acetamide]",< 100
11,"NC(=O)CC1CCC(F)(CCC2c3ccccc3-c3cncn32)CC1 (single isomer, unassigned) [Compound 112a, 2-[4-fluoro-4-[2-[5H-imidazo[4,3-a]isoindol-5-yl]ethyl]cyclohexyl]acetamide]",> 1000
12,"OC1CCC(C(F)(F)CC2c3ccccc3-c3cncn32)CC1 (mixture of isomers) [Compound 74b, 4-(1,1-difluoro-2-[5H-imidazo[4,3-a]isoindol-5-yl]ethyl)cyclohexan-1-ol]",100 to 1000
13,"NC(=O)C1CCC(F)(CCC2c3c(F)cccc3-c3cncn32)CC1 (single isomer, unassigned) [Compound 81a, 4-fluoro-4-[2-[6-fluoro-5H-imidazo[4,3-a]isoindol-5-yl]ethyl]cyclohexane-1-carboxamide]",100 to 1000
14,"OC(CC1c2nc(OC3CC3)ccc2-c2cncn21)C1CCCCC1 (mixture of isomers) [Compound 68b, 1-cyclohexyl-2-[10-cyclopropoxy-4,6,9-triazatricyclo[6.4.0.0^[2,6]]dodeca-1(8),2,4,9,11-pentaen-7-yl]ethan-1-ol]",> 1000
15,"OC(CC1c2nc(C3CC3)ccc2-c2cncn21)C1CCC(F)(F)CC1 (centres unmarked) [Compound 57a, 2-[10-cyclopropyl-4,6,9-triazatricyclo[6.4.0.0^[2,6]]dodeca-1(8),2,4,9,11-pentaen-7-yl]-1-(4,4-difluorocyclohexyl)ethan-1-ol]",> 1000
16,"CC(C)[C@H](N)C(=O)N1CCC(F)(CCC2c3ccccc3-c3cncn32)CC1 (single isomer, unassigned) [Compound 89b]",> 1000
17,"O=C(O)C1CCC(F)(CCC2c3c(F)cccc3-c3cncn32)CC1 (single isomer, unassigned) [Compound 80a, 4-fluoro-4-(2-[6-fluoro-5H-imidazo[4,3-a]isoindol-5-yl]ethyl)cyclohexane-1-carboxylic acid]",< 100
